Like-named read-outs stand apart in the source and are kept apart here.
What was measured:
[1] = system: SARS-CoV-2-NLuc; experiment: microbe, parasite or virus in culture; format: cell-based, SARS Coronavirus 2
[2] = target: recombinant SARS-CoV-2 Main protease (Mpro) (Severe acute respiratory syndrome coronavirus 2 (2019-nCoV) (SARS-CoV-2), UniProt P0DTD1); experiment: Cov Mpro Biochemical IC50 Assay
[3] = Severe acute respiratory syndrome coronavirus, 48 h, read-out: MPro EC50
[4] = recombinant SARS-CoV-2 Mpro, fluorogenic peptide substrate, read-out: MPro IC50
[5] = Severe acute respiratory syndrome coronavirus, 48 h; read-out: MPro EC50
[6] = recombinant SARS-CoV-2 Mpro 7.5 nM, fluorogenic peptide substrate 40 μM, read-out: MPro IC50

Row | SMILES | EC50 [1, 3] [nM] | IC50 [2, 4] [nM] | IC50 [2, 6] [nM] | other results
1 | O=c1[nH]c2cc(-c3ccsc3-c3ccsc3Cl)ccc2c(=O)n1-c1cncc2ccccc12 [Example 85] | 751 | 1490 |  | 
2 | COc1cnc(Cl)c(-c2cc3c(s2)c(=O)n(-c2cncc4cccc(F)c24)c(=O)n3CCC#N)c1 [Example 1083, 3-(6-(2-chloro-5-methoxypyridin-3-yl)-3-(5-fluoroisoquinolin-4-yl)-2,4-dioxo-3,4-dihydrothieno[3,2-d]pyrimidin-1(2H)-yl)propanenitrile] |  |  | 11.1 | EC50 [1, 5]: 36.6 nM
3 | O=c1[nH]c2cc(-c3c(Cl)cccc3-c3ccc4c(c3)OCCO4)ccc2c(=O)n1-c1cncc2ccccc12 [Example 358] | 113 | 177 |  | 
4 | Cc1ccccc1-c1cc2[nH]c(=O)n(-c3cncc4ccccc34)c(=O)c2cn1 [Example 165] | 2470 | 1470 |  | 
5 | COc1cc(-c2cc3[nH]c(=O)n(-c4cncc5ccsc45)c(=O)c3s2)c(Cl)cc1F [Example 482] | 4.44 |  | < 2.54 | 
6 | Cn1ncc2cncc(-n3c(=O)c4sc(-c5cc(F)ccc5C#N)cc4n(CCC#N)c3=O)c21 [Example 778] | 179 |  | 19 | 
7 | COc1ccc(C#N)c(-c2cc3[nH]c(=O)n(-c4cncc5ccc(N6CCOCC6)cc45)c(=O)c3cc2F)c1 [Example 435] | 37.4 |  | 6.97 | 
8 | N#Cc1cc(-c2cccc(Cl)c2-c2ccc3c(=O)n(-c4cncc5ccccc45)c(=O)[nH]c3c2)cnc1N1CCOCC1 [Example 277] | 57 | 124 |  | 
9 | Cc1cc(-c2cccc(Cl)c2-c2cc3[nH]c(=O)n(-c4cncc5ccccc45)c(=O)c3s2)cnn1 [Example 111, 6-(2-chloro-6-(6-methylpyridazin-4-yl)phenyl)-3-(isoquinolin-4-yl)thieno[3,2-d]pyrimidine-2,4(1H,3H)-dione] |  | 6.88 |  | EC50 [1, 5]: 78.9 nM
10 | COc1cc(-c2cc3c(s2)c(=O)n(-c2cccnc2)c(=O)n3CCC#N)c(C#N)cc1F [Example 799] |  |  | 10.3 | EC50 [1, 5]: 42.9 nM
11 | COc1cc(-c2cc3c(s2)c(=O)n(-c2cncc(N4CCOCC4)c2)c(=O)n3CCC#N)c(Cl)cc1F [Example 873] | > 1000 |  | 263 | 
12 | C#Cc1ccccc1-c1ccc2c(=O)n(-c3cncc4ccccc34)c(=O)[nH]c2c1 [Example 28] | 536 | 340 |  | 
13 | COc1cc(-c2cc3c(s2)c(=O)n(-c2cncc4ccc(F)cc24)c(=O)n3CCC#N)c(Cl)cc1F [Example 945] | 8.65 |  | 8 | 
14 | COc1cc(-c2cc3[nH]c(=O)n(-c4cncc5ccccc45)c(=O)c3cc2F)c(C#N)cc1F [Example 202, 5-fluoro-2-[6-fluoro-3-(4-isoquinolyl)-2,4-dioxo-1H-quinazolin-7-yl]-4-methoxy-benzonitrile] | 18.4 | 13.6 |  | 
15 | COc1cc(-c2cc3c(s2)c(=O)n(-c2cncc4cnn(C)c24)c(=O)n3CCC#N)c(Cl)cc1F (single isomer, unassigned) [Example 644, 3-[6-(2-chloro-4-fluoro-5-methoxy-phenyl)-3-(1-methylpyrazolo[4,3-c]pyridin-7-yl)-2,4-dioxo-thieno[3,2-d]pyrimidin-1-yl]propanenitrile] |  |  | 3.1 | EC50 ([1]; read-out: MPro EC50): 1.55 nM
16 | COc1cc(-c2cc3[nH]c(=O)n(-c4cncc5ccccc45)c(=O)c3cc2F)c(Cl)cc1F (single isomer, unassigned) [Example 1006, 7-(2-chloro-4-fluoro-5-methoxy-phenyl)-6-fluoro-3-(4-isoquinolyl)-1H-quinazoline-2,4-dione] |  |  |  | EC50 ([1]; read-out: MPro EC50): 9.33 nM; IC50 ([2]; MPro IC50, recombinant SARS-CoV-2 Mpro 7.5 nM, fluorogenic peptide substrate 40 μM): 23.8 nM
17 | Cc1cc(C#N)c(-c2cc3c(s2)c(=O)n(-c2cncc4cnn(C)c24)c(=O)n3CCC#N)cc1F [Example 786] | 165 |  | 27.9 | 
18 | COc1cc(-c2cc3c(s2)c(=O)n(-c2cncc4cnn(C)c24)c(=O)n3CC2(CC#N)CC2)c(Cl)cc1F [Example 659] |  |  | 40.9 | 

Source: patent US20240116946A1 (Gilead Sciences, Inc., priority 2022, published 2024)
